# pIC50: −log10 of the molar value. Like-named read-outs stand apart in the source and are kept apart here.
# Legend:
# [1] = biological target: T1, human ERG potassium channel (hERG) (Homo sapiens, UniProt Q12809); experiment: hERG channel tail current recording using in vitro Rapid ICE (automated patch-clamp, QPatch HTX); format: cell-based; details: Table 24
# T1 construct: expressed in transfected cells; host or cells: HEK293, stably transfected, tetracycline-inducible promoter
# How it was run: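 Automated patch clamp on tetracycline-induced HEK293 hERG cells; pulse −80 to −50 mV 200 ms, +20 mV 4.8 s, −50 mV 5 s tail, extracellular pH 7.4. Compound at 0.3, 3, 30 μM (0.3% DMSO), 5 min exposure; tail current versus vehicle gives % inhibition and estimated IC50.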
# [2] = Log D 7.4 assay (1-octanol / phosphate buffer pH 7.4); format: physicochemical
# Procedure: Phosphate buffer (1 M) was diluted to 20 mM with deionised water and adjusted to pH 7.4 (±0.05) with phosphoric acid or sodium hydroxide. A 1:1 mixture of phosphate buffer (20 mM) and 1-octanol were saturated by tumbling overnight after which time the two phases were separated. Using an automated liquid handler the following procedure was carried out: 20 mM DMSO stocks of assay and control compounds were reformatted to provide cassettes of 4 compounds per well giving a final concentration of 5 mM per compound. In duplicate 5 μL of the cassetted compounds were added to 495 μL 1-octanol (saturated with buffer) followed by 495 μL of buffer (saturated with 1-octanol) in a 96-well plate giving final incubation concentrations of 25 μM (50 μM max concentration in either layer if all compound partitioned into a single matrix). The layers were mixed by aspirating and dispensing the buffer and octanol layers into one another three times. The plate was sealed, shaken for 120 minutes and then centrifuged at 25° C. for 15 min at 4600 rpm. The 1-octanol and buffer layer were sampled separately (ensuring no cross contamination) and the respective samples diluted with 60:40 ACN:0.1 M ammonium acetate pH 7.4 (containing external standard; Sulfisoxazole, assay concentration 120 nM) to obtain final theoretical maximum concentrations of the 1-octanol layer of 0.025 μM, 0.5 μM and a buffer layer concentration of 0.5 μM. The second buffer sample was prepared by diluting the assay buffer layer with acetonitrile (containing external standard; Sulfisoxazole, assay concentration 120 nM) to give a theoretical maximum concentration of 20 μM. The analytical samples were analysed by LC-MS/MS and the Log D calculated as shown:
# [formula] Where PA=Peak area and ES=External standard
# [3] = Thermodynamic (Equilibrium) solubility in selected buffer; format: physicochemical; details: aqueous buffer, thermodynamic from solid, Table 24
# How it was run: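 Powdered compound at 1 mg/mL target in 50 mM phosphate pH 2.0, 50 mM acetate pH 5.5 or 50 mM phosphate pH 7.4, stirred overnight at r.t. in the dark, then 0.45 μm filtered. Filtrate quantified by UPLC-UV peak area against a 0.8 mg/mL DMSO reference.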
# [4] = tested on: ATF4; experiment: HEK-ATF4 High Content Imaging assay (prevention of Tunicamycin induced ISR; ATF4 signal ratio between nucleus and cytoplasm); format: cell-based; details: Table 24 category key; read-out: HEK-ATF4 Activity*
# How it was run: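 Wild-type HEK293 cells in 0.3% FBS medium were co-treated with compounds and Tunicamycin (3.3 μM in prediluted medium, 11-fold over final) for 6 h at 37 °C. Fixed cells were immunostained for ATF4 with Hoechst nuclei; imaging gave nuclear/cytoplasmic ATF4 ratio, with nuclei counts as toxicity control.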
# [5] = acetate buffer 50 mM, pH 5, read-out: Solubility (μg/mL) pH 5
# [6] = phosphate buffer 50 mM, pH 2, read-out: Solubility (μg/mL) pH 2
# [7] = phosphate buffer 50 mM, pH 7.4, read-out: Solubility (μg/mL) pH 7.4
# T1 sequence (Q12809 whole entry): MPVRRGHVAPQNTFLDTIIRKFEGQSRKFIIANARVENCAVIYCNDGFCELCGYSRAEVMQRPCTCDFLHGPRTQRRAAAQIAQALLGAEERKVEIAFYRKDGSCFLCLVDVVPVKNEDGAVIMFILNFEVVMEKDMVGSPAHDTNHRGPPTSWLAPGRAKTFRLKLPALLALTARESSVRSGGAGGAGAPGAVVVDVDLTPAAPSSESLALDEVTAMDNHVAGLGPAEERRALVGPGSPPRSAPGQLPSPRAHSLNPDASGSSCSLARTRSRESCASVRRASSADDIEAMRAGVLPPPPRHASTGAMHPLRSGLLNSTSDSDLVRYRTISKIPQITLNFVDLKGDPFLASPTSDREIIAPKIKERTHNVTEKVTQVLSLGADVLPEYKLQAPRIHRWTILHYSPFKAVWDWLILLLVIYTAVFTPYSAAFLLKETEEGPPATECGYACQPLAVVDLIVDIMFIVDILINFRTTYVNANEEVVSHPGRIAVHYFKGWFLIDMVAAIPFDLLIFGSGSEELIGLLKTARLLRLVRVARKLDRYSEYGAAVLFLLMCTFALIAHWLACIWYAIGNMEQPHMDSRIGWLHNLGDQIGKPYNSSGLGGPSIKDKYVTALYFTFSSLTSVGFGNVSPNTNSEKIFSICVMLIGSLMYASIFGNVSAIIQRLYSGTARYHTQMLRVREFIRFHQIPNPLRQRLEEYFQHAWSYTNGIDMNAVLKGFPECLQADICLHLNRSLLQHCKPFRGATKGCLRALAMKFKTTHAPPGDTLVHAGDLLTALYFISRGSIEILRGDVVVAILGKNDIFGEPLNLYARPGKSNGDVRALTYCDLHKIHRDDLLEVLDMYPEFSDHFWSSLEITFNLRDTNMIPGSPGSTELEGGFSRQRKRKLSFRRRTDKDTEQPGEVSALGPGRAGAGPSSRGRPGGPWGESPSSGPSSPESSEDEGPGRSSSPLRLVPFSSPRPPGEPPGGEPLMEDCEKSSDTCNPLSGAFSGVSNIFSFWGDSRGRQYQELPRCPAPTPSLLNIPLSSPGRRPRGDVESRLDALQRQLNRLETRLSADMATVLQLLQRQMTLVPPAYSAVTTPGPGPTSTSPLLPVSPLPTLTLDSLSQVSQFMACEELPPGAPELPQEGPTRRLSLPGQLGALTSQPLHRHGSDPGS
SMILES,pIC50 [1],logD at 120 min [2],"solubility [3, 5]","solubility [3, 6]","solubility [3, 7]",pIC50 [4]
"O=C(COc1ccc(Cl)c(F)c1)N[C@@H]1CC[C@@H](c2nnc([C@H]3C[C@@H](OC(F)(F)F)C3)o2)OC1 [WO201904 6779 Ex 1, reference compound]",5.30 to 6.00,3.6,< 1 µg/mL,< 1 µg/mL,< 1 µg/mL,6.30 to 9.00
"O=C(COc1ccc(Cl)c(F)c1)N[C@@H]1CC[C@@H](c2nnc(COC(F)(F)F)o2)OC1 [WO201904 6779 Ex 30, reference compound]",6.00 to 9.00,2.9,3 µg/mL,3 µg/mL,3 µg/mL,5.70 to 6.30

# — patent US12258338B2, “Modulators of the integrated stress response pathway” (EVOTEC INTERNATIONAL GMBH, priority 2019, dated 2025)
